The text below walks through data of patent US8912189B2, “Pyridopyrazine derivatives and their use” (Aeterna Zentaris GmbH, priority 2011, dated 2014).

The target in data set [1] is T1, Erk2.
T1 construct: partly as full-length kinases, partly as shortened fragments, but at least consisting of the functional kinase domains; purchased Upstate 14-173
Description: Cell-free kinase assay (ALPHA technology), Erk2. The settings on record: at 10 μM ATP; recombinant human kinase. The class given is biochemical.

For data set [2], the system named is Hct116. Nature of the data set: XTT assay, anti-proliferative effect. The class given is cell-based. The settings on record: Homo sapiens, HCT-116; Hct116 cells, ~48 h incubation. Here is the method: The principle of this test is based on the intracellular reduction of the tetrazolium dye XTT (sodium 3′-[1-(phenylaminocarbonyl)-3,4-tetrazolium]-bis(4-methoxy-6-nitro)benzene sulfonic acid, Sigma) to a formazan dye by mitochondrial dehydrogenases. The dye is only formed by metabolically active cells and its photometrically measurable intensity is a quantitative indicator for the presence of living cells. The reduction of dye formation by incubation of the cells with substances serves as a parameter for the anti-proliferative effect.
The tumour cell lines (ATCC) were injected into 96-well microtitre plates in a defined cell number (1250 cells/well for Hct116) and then incubated overnight in an incubator at 37° C., 5% CO2 and 95% air humidity. The test substances were prepared as stock solutions (10 mM) in DMSO. To determine the EC50 values the potential inhibitor substances were added to the cells in half-logarithmically graded dilutions, resulting in final concentrations of 1.58 nM-50 μM. The cell plates were then incubated for ˜48 h in an incubator at 37° C., 5% CO2 and 95% air humidity.
For the detection reaction the substrate XTT was mixed with PMS (N-Methyl dibenzopyrazine methylsulfate, Sigma) and added to the cells so that a final concentration of 325 μg XTT/ml and 2.5 μg PMS/ml was obtained. It was then incubated for 3 h at 37° C., 95% air humidity. The formazan salt formed by the cellular dehydrogenases could then be quantified by adsorption at 490 nm.
The % inhibition value was evaluated by means of the following formula from the values for the optical densities measured in each case at 490 nm:
Eight determinations were made for each control and two for the substance samples. The 0% control contains no cells, the 100% control (proliferation control) contains no test substance. The EC50 values were determined using GraphPadPrism.

In data set [3] the target is T2, PI3Kalpha (Homo sapiens, UniProt P42336).
T2 construct: partly as full-length kinases, partly as shortened fragments, but at least consisting of the functional kinase domains; purchased Upstate 14-602
T2 sequence (P42336 whole entry, the tested form may be a part): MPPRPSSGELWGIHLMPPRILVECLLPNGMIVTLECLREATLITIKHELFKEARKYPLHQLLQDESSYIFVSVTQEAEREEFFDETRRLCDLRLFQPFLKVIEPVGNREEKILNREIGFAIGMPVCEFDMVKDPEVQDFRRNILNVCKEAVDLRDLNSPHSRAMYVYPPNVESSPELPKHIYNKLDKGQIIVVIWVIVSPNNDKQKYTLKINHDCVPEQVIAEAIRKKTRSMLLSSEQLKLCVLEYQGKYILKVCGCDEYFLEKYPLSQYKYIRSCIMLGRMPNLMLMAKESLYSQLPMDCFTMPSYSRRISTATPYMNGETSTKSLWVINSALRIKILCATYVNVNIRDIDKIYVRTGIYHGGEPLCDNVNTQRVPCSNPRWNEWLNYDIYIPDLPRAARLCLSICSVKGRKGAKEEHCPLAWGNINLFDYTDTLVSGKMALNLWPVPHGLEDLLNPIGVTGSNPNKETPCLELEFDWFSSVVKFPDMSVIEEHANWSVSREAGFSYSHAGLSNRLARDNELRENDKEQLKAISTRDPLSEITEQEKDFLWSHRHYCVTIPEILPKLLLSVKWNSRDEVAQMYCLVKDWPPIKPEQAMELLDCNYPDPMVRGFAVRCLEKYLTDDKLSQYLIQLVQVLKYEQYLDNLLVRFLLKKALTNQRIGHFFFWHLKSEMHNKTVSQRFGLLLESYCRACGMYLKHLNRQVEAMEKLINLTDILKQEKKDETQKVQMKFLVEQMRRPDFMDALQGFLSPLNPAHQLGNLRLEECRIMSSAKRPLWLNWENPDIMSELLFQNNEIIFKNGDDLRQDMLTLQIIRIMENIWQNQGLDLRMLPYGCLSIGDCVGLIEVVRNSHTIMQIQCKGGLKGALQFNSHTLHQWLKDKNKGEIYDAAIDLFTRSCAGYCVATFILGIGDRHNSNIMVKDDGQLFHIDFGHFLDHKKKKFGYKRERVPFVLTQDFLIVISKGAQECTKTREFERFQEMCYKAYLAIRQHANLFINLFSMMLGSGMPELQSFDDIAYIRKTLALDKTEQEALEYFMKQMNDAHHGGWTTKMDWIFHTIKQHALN
T2 sequence (P27986 whole entry partner, the tested form may be a part): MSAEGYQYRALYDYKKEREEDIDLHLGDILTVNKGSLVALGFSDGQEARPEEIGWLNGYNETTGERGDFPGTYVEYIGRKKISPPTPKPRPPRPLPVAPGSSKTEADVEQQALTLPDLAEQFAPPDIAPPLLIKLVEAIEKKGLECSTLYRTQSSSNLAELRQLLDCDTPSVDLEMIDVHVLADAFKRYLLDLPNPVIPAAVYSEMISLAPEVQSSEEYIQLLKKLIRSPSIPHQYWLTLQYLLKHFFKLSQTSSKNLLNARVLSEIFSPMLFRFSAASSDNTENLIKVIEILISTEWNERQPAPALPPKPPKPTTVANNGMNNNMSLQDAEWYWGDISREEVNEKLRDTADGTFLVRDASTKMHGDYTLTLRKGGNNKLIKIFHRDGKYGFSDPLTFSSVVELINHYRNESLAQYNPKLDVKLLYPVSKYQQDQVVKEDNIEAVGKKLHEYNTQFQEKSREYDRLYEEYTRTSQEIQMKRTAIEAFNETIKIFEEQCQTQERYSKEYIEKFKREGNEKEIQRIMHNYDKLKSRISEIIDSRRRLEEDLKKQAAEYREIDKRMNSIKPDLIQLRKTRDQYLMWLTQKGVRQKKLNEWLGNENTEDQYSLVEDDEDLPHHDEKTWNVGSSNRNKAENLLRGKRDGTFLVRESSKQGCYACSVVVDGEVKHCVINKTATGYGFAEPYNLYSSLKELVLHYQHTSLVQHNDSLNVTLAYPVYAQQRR
Description: Cell-free kinase assay (ALPHA technology), PI3Kalpha. The class given is biochemical. The settings on record: at 100 μM ATP; recombinant human kinase. Here is the method: The inhibitory effect of the compounds according to the invention was tested on various serine/threonine, tyrosine and lipid kinases in enzymatic assays. Recombinant human kinases such as, for example, Erk2, PI3Kalpha and others were used in this case, partly as full-length kinases, partly as shortened fragments, but at least consisting of the functional kinase domains. The commercial kinase proteins (Proqinase, Upstate) were used as recombinant fusion proteins with GST (glutathion-S-transferase) or His-Tag. Depending on the type of substrate, the various kinase reactions were quantified by means of suitable ALPHA™ beads (Perkin-Elmer).
The substance testing is described in detail hereinafter for the Erk assay. To determine the IC50 value, the potential inhibitor substances were investigated in 10 semi-logarithmically graded concentrations of 3.16 nM-100 μM.
b) PI3K-ALPHAs (e.g. PI3Kalpha): the test substance, 1 ng PI3Kalpha (#14-602, Upstate), 100 μM ATP and 20 μM PIP2 substrate (#64910, Cayman Chemicals) were incubated on a 384-well Optiplate (Perkin-Elmer) for 1 h in 50 mM Hepes, 50 mM NaCl, 5 mM MgCl2, 0.05% Chaps, 5 mM DTT at pH 7.4. The kinase reaction was then stopped by adding ALPHA bead mixes (10 μg/ml, #6760603/Perkin-Elmer) pre-incubated with 1 nM GST:Grp1 fusion protein (Upstate) and 15 nM biotinylated PIP3 (#10009531, Cayman Chemicals) in 50 mM Hepes, 50 mM NaCl, 50 mM EDTA and 0.1% BSA and left to stand overnight.
The fluorescence was detected the following morning in a Envision plate reader (Perkin-Elmer).
The %-inhibition values per substance concentration were calculated by means of the following formula from the raw data determined in the Envision plate reader:
Eight determinations were made for each control and two for the substance samples. The 0% control either contains no ATP or no substrate, the 100% control (fully active kinase) contains no test substance. The IC50 values were determined using GraphPadPrism.

T1 sequence (P63085 2-358 limits assumed): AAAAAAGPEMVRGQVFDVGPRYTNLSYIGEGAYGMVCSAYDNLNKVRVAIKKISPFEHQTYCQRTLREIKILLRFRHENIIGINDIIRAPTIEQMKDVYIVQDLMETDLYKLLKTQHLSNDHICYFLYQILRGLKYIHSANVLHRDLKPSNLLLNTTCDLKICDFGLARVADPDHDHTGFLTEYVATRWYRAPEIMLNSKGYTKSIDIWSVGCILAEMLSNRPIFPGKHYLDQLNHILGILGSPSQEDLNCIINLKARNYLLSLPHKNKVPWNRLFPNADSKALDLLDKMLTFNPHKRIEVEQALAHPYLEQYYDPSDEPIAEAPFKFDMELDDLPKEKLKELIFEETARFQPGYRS

Turning to `CCNC(=S)Nc1ccc2ncc(-c3cnn(Cc4ccc(O)cc4)c3)nc2n1` [Compound 210, 1-Ethyl-3-{3-[1-(4-hydroxy-benzyl)-1H-pyrazol-4-yl]-pyrido[2,3-b]pyrazin-6-yl}-thiourea], the melting point was determined as 257 °C. Moreover, in data set [1], the IC50 stood at 0.225 µM. This molecule came in with an EC50 in data set [2] of 1.7 µM. Moreover, in data set [3], the 50% inhibitory concentration (IC50) was found to be 0.208 µM.

Take `CCNC(=S)Nc1ccc2ncc(-c3cnn(Cc4ccccc4)c3)nc2n1` [Compound 45, 1-[3-(1-Benzyl-1H-pyrazol-4-yl)-pyrido[2,3-b]pyrazin-6-yl]-3-ethyl-thiourea]: the melting point was 252 °C. Also, the concentration for half-maximal inhibition (IC50) in data set [1] worked out at 0.272 µM. Further, in data set [2], the 50% effective concentration (EC50) is 1.95 µM. Besides, in data set [3], the IC50 stood at 0.249 µM.

For the molecule `CCNC(=S)Nc1ccc2ncc(-c3cnn(Cc4ccc(O)c(OC)c4)c3)nc2n1` [Compound 55, 1-Ethyl-3-{3-[1-(4-hydroxy-3-methoxy-benzyl)-1H-pyrazol-4-yl]-pyrido[2,3-b]pyrazin-6-yl}-thiourea], the melting point was determined as 242 °C. The IC50 in data set [1] stood at 0.523 µM. In addition, in data set [3], the half-inhibitory concentration (IC50) was found to be 0.391 µM.

`CCNC(=S)Nc1ccc2ncc(-c3cnn(Cc4ccc(OC)c(OC)c4)c3)nc2n1` [Compound 28, 1-{3-[1-(3,4-Dimethoxy-benzyl)-1H-pyrazol-4-yl]-pyrido[2,3-b]pyrazin-6-yl}-3-ethyl-thiourea] showed a melting point of 213 °C. For the same molecule, in data set [1], the IC50 was 0.112 µM. Further, the 50% effective concentration (EC50) in data set [2] was 1.65 µM. Further, in data set [3], the IC50 stood at 0.082 µM.

`CCNC(=O)Nc1ccc2ncc(-c3cnn(Cc4ccc(OC)c(OC)c4)c3)nc2n1` [Compound 42, 1-{3-[1-(3,4-Dimethoxy-benzyl)-1H-pyrazol-4-yl]-pyrido[2,3-b]pyrazin-6-yl}-3-ethyl-urea] returned a melting point of 205 °C. Besides, in data set [1], the half-maximal inhibitory concentration (IC50) was 0.043 µM. This molecule had an EC50 in data set [2] of 1.98 µM. For the same molecule, the IC50 in data set [3] stood at 0.274 µM.

For `CCNC(=S)Nc1ccc2ncc(-c3cnn(Cc4cccc(OC(F)F)c4)c3)nc2n1` [Compound 27, 1-{3-[1-(3-Difluoromethoxy-benzyl)-1H-pyrazol-4-yl]-pyrido[2,3-b]pyrazin-6-yl}-3-ethyl-thiourea], the 50% inhibitory concentration (IC50) in data set [1] stood at 0.75 µM; in data set [3] it was 0.059 µM. Besides, the EC50 in data set [2] is 1.53 µM.

As to `CCNC(=S)Nc1ccc2ncc(-c3cnn(Cc4cccc(S(C)(=O)=O)c4)c3)nc2n1` [Compound 65, 1-Ethyl-3-{3-[1-(3-methanesulfonyl-benzyl)-1H-pyrazol-4-yl]-pyrido[2,3-b]pyrazin-6-yl}-thiourea], the figures for the IC50 in data set [1] and in data set [3] were 0.225 µM and 0.18 µM, respectively. Further, it took 2.11 µM to reach a half-maximal effect in data set [2] (EC50).

Take `CCNC(=S)Nc1ccc2ncc(-c3cnn(Cc4cccc(OC)c4)c3)nc2n1` [Compound 40, 1-Ethyl-3-{3-[1-(3-methoxy-benzyl)-1H-pyrazol-4-yl]-pyrido[2,3-b]pyrazin-6-yl}-thiourea]: the melting point was 217 to 220 °C. For the same molecule, in data set [1], the concentration for half-maximal inhibition (IC50) worked out at 0.336 µM. Also, a half-maximal response in data set [2] (EC50) required 2.57 µM. Besides, the concentration for half-maximal inhibition (IC50) in data set [3] worked out at 0.168 µM.

`CCNC(=S)Nc1ccc2ncc(-c3cnn(Cc4cccc(C)c4)c3)nc2n1` [Compound 41, 1-Ethyl-3-{3-[1-(3-methyl-benzyl)-1H-pyrazol-4-yl]-pyrido[2,3-b]pyrazin-6-yl}-thiourea] yielded a melting point of 258 to 261 °C. In addition, the IC50 in data set [1] was found to be 0.4 µM. This molecule registered an EC50 in data set [2] of 3.01 µM. Further, the IC50 in data set [3] is 0.184 µM.

On to `CCNC(=S)Nc1ccc2ncc(-c3cnn(Cc4ccc(OC)c(OC)c4OC)c3)nc2n1` [Compound 43, 1-Ethyl-3-{3-[1-(2,3,4-trimethoxy-benzyl)-1H-pyrazol-4-yl]-pyrido[2,3-b]pyrazin-6-yl}-thiourea], for which the melting point was determined as 213 °C.

`CCNC(=S)Nc1ccc2ncc(-c3cnn(CCCc4ccccc4)c3)nc2n1` [Compound 44, 1-Ethyl-3-{3-[1-(3-phenyl-propyl)-1H-pyrazol-4-yl]-pyrido[2,3-b]pyrazin-6-yl}-thiourea] gave a melting point of 206 to 208 °C.

The molecule `CCNC(=S)Nc1ccc2ncc(-c3cnn(Cc4cccnc4)c3)nc2n1` [Compound 24, 1-Ethyl-3-[3-(1-pyridin-3-ylmethyl-1H-pyrazol-4-yl)-pyrido[2,3-b]pyrazin-6-yl]-thiourea] displayed a melting point of 238 °C.

The molecule `COc1cccc(Cn2cc(-c3cnc4ccc(NC(=S)NCC(F)(F)F)nc4n3)cn2)c1` [Compound 47, 1-{3-[1-(3-Methoxy-benzyl)-1H-pyrazol-4-yl]-pyrido[2,3-b]pyrazin-6-yl}-3-(2,2,2-trifluoro-ethyl)-thiourea] gave a melting point of 217 °C.

`CCNC(=O)Nc1ccc2ncc(-c3cnn(Cc4cccc(O)c4)c3)nc2n1` [Compound 4, 1-Ethyl-3-{3-[1-(3-hydroxy-benzyl)-1H-pyrazol-4-yl]-pyrido[2,3-b]pyrazin-6-yl}-urea]: the melting point worked out at 242 °C.

`CCNC(=O)Nc1ccc2ncc(-c3cnn(Cc4ccc(OC)c(O)c4)c3)nc2n1` [Compound 56, 1-Ethyl-3-{3-[1-(3-hydroxy-4-methoxy-benzyl)-1H-pyrazol-4-yl]-pyrido[2,3-b]pyrazin-6-yl}-urea] registered a melting point of 250 °C.

`CCNC(=S)Nc1ccc2ncc(-c3cnn(CCc4ccccc4)c3)nc2n1` [Compound 53, 1-Ethyl-3-[3-(1-phenethyl-1H-pyrazol-4-yl)-pyrido[2,3-b]pyrazin-6-yl]-thiourea] had a melting point of 231 to 233 °C.

The molecule `CCNC(=O)Nc1ccc2ncc(-c3cnn(Cc4ccc(Cl)cc4)c3)nc2n1` [Compound 18, 1-{3-[1-(4-Chloro-benzyl)-1H-pyrazol-4-yl]-pyrido[2,3-b]pyrazin-6-yl}-3-ethyl-urea] gave a melting point of 240 to 244 °C.

`COCNC(=S)Nc1ccc2ncc(-c3cnn(Cc4cccc(OC)c4)c3)nc2n1` [Compound 33, 1-{3-[1-(3-Methoxy-benzyl)-1H-pyrazol-4-yl]-pyrido[2,3-b]pyrazin-6-yl}-3-methoxymethyl-thiourea] yielded a melting point of 187 °C.

Molecule `CCNC(=O)Nc1ccc2ncc(-c3cnn(CCNC(=O)OC(C)(C)C)c3)nc2n1` [Compound 406, (2-{4-[6-(3-Ethyl-ureido)-pyrido[2,3-b]pyrazin-3-yl]-pyrazol-1-yl}ethyl)-carbamic acid tert-butyl ester] had a melting point of 235 °C.

As for `CCNC(=O)Nc1ccc2ncc(-c3ccc(C)o3)nc2n1` [Compound 416, 1-Ethyl-3-[3-(5-methyl-furan-2-yl)-pyrido[2,3-b]pyrazin-6-yl]-urea], the melting point was determined as 242 °C.

The molecule `CCNC(=O)Nc1ccc2ncc(-c3cnn(Cc4ccc(C)cc4)c3)nc2n1` [Compound 15, 1-Ethyl-3-{3-[1-(4-methyl-benzyl)-1H-pyrazol-4-yl]-pyrido[2,3-b]pyrazin-6-yl}-urea] yielded a melting point of 217 to 220 °C.

Turning to `CCNC(=S)Nc1ccc2ncc(-c3cnn(Cc4cccc(OCc5ccccc5)c4)c3)nc2n1` [Compound 21, 1-{3-[1-(3-Benzyloxy-benzyl)-1H-pyrazol-4-yl]-pyrido[2,3-b]pyrazin-6-yl}-3-ethyl-thiourea], the melting point fell in the range of 203 to 205 °C.

Molecule `CCNC(=S)Nc1ccc2ncc(-c3cnn(Cc4cccc(OCC)c4)c3)nc2n1` [Compound 49, 1-{3-[1-(3-Ethoxy-benzyl)-1H-pyrazol-4-yl]-pyrido[2,3-b]pyrazin-6-yl}-3-ethyl-thiourea] yielded a melting point of 222 °C.
